Assay results taken from US20050171185A1, “Indole derivatives” (Fujisawa Pharmaceutical Co., Ltd., a Japanese corporation, priority 1998, published 2005).

System: db/db mice
Assay: Test for activity of decreasing plasma glucose using db/db mice
Format: in vivo
Details: female db/db mice, test compound mixed in powdered chow (0.01%) for 14 days, dose 3.2 mg/kg; difference between db/db and +/+ mouse groups defined as 100%
Excerpt: Test Example: Test for Activity of Decreasing Plasma Glucose Using db/db Mice
3-(1-bromonaphthalen-2-ylmethyl)-5-((5-chloro-2-thiophenylsulfonyl)carbamoyl)-2-methylindole (Compound (23))
Five-week-old female mice [C57BL/KsJ-dbm db+/db+, C57BL/KsJ-dbm +m/+m (Jackson Laboratory)] were purchased, and were kept for 2 to 3 weeks. Then, these mice were used in the test.
A test compound was mixed with a powdered chow (CE-2, made by Nippon Clea) using a mortar. The mixing ratio was 0.01%. The mixed chow was changed twice a week for each group. The feed amount and the remaining amount were recorded, and the intake was calculated from the difference therebetween.
The female db/db mice were grouped according to the body weight, the plasma glucose, and the plasma triglyceride concentrations. […] Plasma glucose, triglyceride, and insulin concentrations were measured on day 0 and day 14 as well as plasma glucose and triglyceride concentrations on day 7. The body weight was measured on day 0, day 7, and day 14. […]
The plasma glucose was measured by a glucose oxidase method (Glucose CII-Test Wako made by Wako Pure Chemical Industries, Ltd.) using from 10 to 15 μl of plasma. The plasma triglyceride concentration was measured by a GPO-p-chlorophenol method (Triglyceride G-Test Wako made by Wako Pure Chemical Industries, Ltd.) or a GPO-DAOS method (Triglyceride E-Test Wako) using from 10 to 15 μl of plasma. […]

## Cc1[nH]c2ccc(C(=O)NS(=O)(=O)c3ccc(Cl)s3)cc2c1Cc1ccc2ccccc2c1Br [Compound (23), 3-((1-bromonaphthalen-2-yl)methyl)-5-((5-chloro-2-thiophenesulfonyl)carbamoyl)-2-methylindole]
  TG concentration-decreasing activity (rate of decrease in plasma triglyceride): 9%
  plasma glucose decreasing activity (rate of decrease in plasma glucose): 19%
